Laboratory results taken from patent publication US20250206734A1, “BICYCLIC HETEROCYCLES AS MRGPRX2 ANTAGONISTS” (Incyte Corporation, priority 2023, published 2025).

Legend:
Format in all cases: cell-based
[1] = molecular target: T1, MRGPRX2 (Homo sapiens, UniProt Q96LB1); test: MRGPRX2 FLIPR Calcium Mobilization Assay; parameters: host or cells: CHO-K1; details: CHO-K1 cells stably expressing human MRGPRX2; Ca2+ release; agonist Cortistatin-14 at EC80
T1 sequence (Q96LB1 1-330): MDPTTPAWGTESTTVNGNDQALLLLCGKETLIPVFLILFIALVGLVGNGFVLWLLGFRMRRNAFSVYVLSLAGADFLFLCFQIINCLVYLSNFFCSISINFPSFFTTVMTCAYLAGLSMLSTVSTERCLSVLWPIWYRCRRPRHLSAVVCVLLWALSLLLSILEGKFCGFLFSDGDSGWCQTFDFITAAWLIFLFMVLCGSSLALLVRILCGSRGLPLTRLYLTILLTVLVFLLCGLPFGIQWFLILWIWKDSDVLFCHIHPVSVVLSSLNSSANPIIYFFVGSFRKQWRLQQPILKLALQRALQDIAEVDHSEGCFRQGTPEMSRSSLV
Procedure: Example A. MRGPRX2 FLIPR Calcium Mobilization Assay
Chinese hamster ovary (CHO-K1) cells stably expressing human MRGPRX2 were purchased from Genescript (Piscataway, NJ). The cells were maintained in culture medium (Ham's F-12K) containing 10% (v/v) FBS, 200 μg/mL Zeocin, 100 units/mL penicillin G and 100 μg/mL streptomycin (Life Technologies, Carlsbad, CA). For the assay, the cells were harvested and resuspended with culture medium without Zeocin before plating at 8000 cells per well in 20 μL in 384-well black clear bottom cell culture plates (VWR, Radnor, PA). After 24 hour culture at 37° C. and 5% CO2, the cells were loaded with 20 μL/well of calcium dye (FLIPR Calcium 6 Assay Kit, Molecular Devices, San Jose, CA) diluted in loading buffer (1× Hank's Balanced Salt Solution (HBSS), 5 mM probenecid, 20 mM 4-(2-hydroxyethyl)-1-piperazineethanesulfonic acid (HEPES), pH 7.4, VWR, Radnor, PA) followed with 45 min incubation at 37° C. and 40 min. at r.t. in the dark. Cells were then treated with the addition of 10 uL/well test compounds with a range of increasing concentrations diluted in the assay buffer (1×HBSS, 20 mM HEPES, pH 7.4, VWR, Radnor, PA) with FLIPR Penta (Molecular Devices. San Jose, CA) and incubated for 30 min. at r.t. Ca^2+ release was measured with FLIPR Penta with 10 s basal fluorescence measurement, then 12.5 μL of 5× agonist Cortistatin-14 (Tocris, Minneapolis, MN) at final concentration corresponding to the EC80 were added followed with continued fluorescence signal monitoring for an additional 110 s. The base line adjusted (median of first 10s base line) max value of the Relative Fluorescence Unit (RFU) was plotted against compound concentrations. Wells with no compound were served as the positive controls, and wells with high concentration of reference antagonist were used as negative controls. IC50 curves were globally fitted with 3- or 4-parameter Hill equation in a Genedata Screener (Genedata Basel, Switzerland).

[2] = molecular target: T1, MRGPRX2; test: MRGPRX2 IP1 HTRF Assay; parameters: host or cells: CHO-K1; details: CHO-K1 cells stably expressing human MRGPRX2; IP1 accumulation; agonist Cortistatin 14 1 μM
Text: Example B: MRGPRX2 IP1 HTRF Assay
This assay measures compound inhibition of myo-Inositol 1 phosphate (IP1) accumulation in CHO-K1 cells. Chinese hamster ovary (CHO-K1) cells stably expressing human MRGPRX2 were purchased from GenScript (Piscataway, NJ).
For the HTRF IP1 determination, an IP-One GqKit (Perkin Elmer Cisbio, Waltham, MA), which includes all reagents and buffers in this protocol, was used. The cells were maintained in culture medium (Ham's F-12K) containing 10% (v/v) FBS, and 200 μg/mL Zeocin. For the assay, the cells were harvested and resuspended in culture medium with 2% FBS and without Zeocin, then were passed through a 40 μm filter. Cells were added at 20000 cells in a 5 μL/well to a 384-well white small volume cell culture plate (Greiner VWR, Radnor, PA) which contained 50 nL/well of test compound serially diluted at a selected concentration range in DMSO. 5 μL/well of prepared 2× Stimulation Buffer2 was then added to plates and was incubated at 37° C. with 5% CO2 for 1 h. 5 μL/well of agonist Cortistatin 14 (Bio-TechneR&D Systems, Minneapolis, MN) in 1× Stimulation Buffer 2, for a 1 μM final concentration, was then added to plates and incubated at 37° C. with 5% CO2 for 1 h. 6 μL/well of 1:20 diluted Detection Reagent Mix (d2 and Cryptate) was added to the plates and incubated for 1 h in the dark. Plates were read on the PHERAstar microplate reader (BMG Labtech Cary, NC) to determine the HTRF ratio of the acceptor and donor emission signals. The IP1 concentrations were calculated from a standard curve following the IP-One GQ kit instructions. Wells with DMSO only and wells with high concentration of reference antagonist were used as controls for normalization. Compound IC50 curves were globally fitted with 3- or 4-parameter Hill equation in a Genedata Screener (Genedata Basel, Switzerland).

[3] = molecular target: T1, MRGPRX2; test: MRGPRX2 β-Arrestin Assay; parameters: host or cells: PathHunter CHO-K1; details: PathHunter CHO-K1 MRGPRX2 β-Arrestin cell line; agonist Cortistatin 14 0.25 μM
Text: Example C: MRGPRX2 β-Arrestin Assay
This assay measures compound inhibition of β-Arrestin recruitment, which is part of the G protein-independent pathway that results from the ligand-activated GPCR phosphorylation by specific GPCR kinases. The PathHunter CHO-K1 MRPGRX2 B-Arrestin Cell line stably expressing ProLink tagged MRGPRX2 and Enzyme Acceptor Tagged B-Arrestin was purchased from Eurofins DiscoverX, (Fremont, CA).
The cells were maintained in culture medium from the Europhins DiscoverX Cell Culture Kit-107 which includes FBS, hygromycin B and G418. For the assay, the cells were harvested and were resuspended with Cell Plating Reagent 2 (Eurofins DiscoverX). Cells were added 10000 cells in 25 μL/well to a 384-well black cell culture plate (Greiner VWR, Radnor, PA) which contained 125 nL/well of compound at a selected serially diluted concentration range or DMSO. The plate was incubated at 37° C. with 5% CO2 for 1 h. 2 μL/well of agonist Cortistatin 14 was diluted in Protein Dilution Buffer, (Eurofins DiscoverX) for a final concentration of 0.25 μM, was added and the plate was incubated at 37° C. with 5% CO2 for 90 min. 14 μL/well of Detection Reagent Mix (PathHunter Detection Kit, Eurofins DiscoverX) was added to the plates and further incubated for 1 h in the dark. Plates were read on the PHERAstar microplate reader (BMG Labtech Cary, NC) measuring luminescence 0.1 to 1 s per well. Data was normalized using DMSO only wells and wells with high concentration of reference antagonist as controls. Compound IC50 curves were globally fitted with 3- or 4-parameter Hill equation in a Genedata Screener (Genedata Basel, Switzerland).

SMILES | IC50 [1] | IC50 [2] | IC50 [3]
CC(c1cc2ncc(Oc3ccc(F)cc3F)cc2cn1)N1CCC(F)(F)CC1 (stereo not drawn) [Example 1, 3-(2,4-Difluorophenoxy)-7-(1-(4,4-difluoropiperidin-1-yl)ethyl)-1,6-naphthyridine] | 0.0001 to 0.1 µM | 0.1 to 1 µM | 0.1 to 1 µM
CC(c1cc2ncc(Oc3ccc(F)cc3F)cc2cn1)N1CCCC1c1ccccc1 (stereo not drawn) [Example 3, 3-(2,4-Difluorophenoxy)-7-(1-(2-phenylpyrrolidin-1-yl)ethyl)-1,6-naphthyridine] | 0.0001 to 0.1 µM | 0.0001 to 0.1 µM | 0.0001 to 0.1 µM
Fc1ccc(Oc2cnc3cc(C(N4CCCCC4)C(F)(F)F)ncc3c2)c(F)c1 (stereo not drawn) [Example 5, 3-(2,4-Difluorophenoxy)-7-(2,2,2-trifluoro-1-(piperidin-1-yl)ethyl)-1,6-naphthyridine] | 0.0001 to 0.1 µM | 0.1 to 1 µM | 0.0001 to 0.1 µM
